Laboratory results as given in patent publication US10647721B2, “Bicyclic heteroaryl derivatives” (Hoffmann-La Roche Inc., priority 2016, dated 2020).

System: γ-secretase
Assay: Cellular γ-secretase assay (inhibition of Aβ42 secretion, AlphaLisa)
Type: cell-based
Settings: human neuroglioma H4 cells overexpressing human APP695 Swedish double mutation, 24 hr compound incubation
Description: Cellular γ-Secretase Assay
Human neuroglioma H4 cells overexpressing human APP695 with the Swedish double mutation (K595N/M596L) were plated at 30,000 cells/well/100 μl in 96-well plates in IMDM media containing 10% FCS, 0.2 mg/l Hygromycin B and incubated at 37° C., 5% CO2.
3-4 hr post plating, compounds are a diluted in media and 50 μl is added as 1.5-fold concentrate to achieve the final concentration. Compound incubation is performed for 24 hr. Final doses typically range from 4 μm down to 0.0013 μm in half-log steps resulting in a eight point dose response curve.
Appropriate controls using vehicle only and reference compound were applied to this assay. The final concentration of Me2SO was 0.4%.
After incubation at 37° C., 5% CO2, the supernatant was subjected to quantification of secreted Aβ42 by the means of an AlphaLisa assay kit (Human Amyloid beta 1-42 Kit: Cat # AL203C, Perkin Elmer). 20 μl of the cell culture supernatant was transferred to an assay plate. Then 10 μl of a mixture of the AlphaLisa coupled capture antibody and the biotinylated detection antibody was added and incubated for 3 hours at room temperature while softly shaking the assay plate. After a further addition of 20 μl of the Donor beads the assay plate was incubated for 30 min at room temperature and constant shaking without exposure to direct light. The assay plate was then read on a Paradigm AlphaLisa Reader using the build-in program with excitation at 680 nm and emission at […].
The measured signals were then used to calculate IC50 values for inhibition of Aβ42 secretion by nonlinear regression fit analysis using XLfit 5.3 software (IDBS).

EC50 [nM] | SMILES
25.1 | Cc1ncn(-c2ccc(Nc3nc4n(n3)CCCN4c3ccc(F)c(F)c3)cc2C#N)n1 [Example 30, 5-[[4-(3,4-difluorophenyl)-6,7-dihydro-5H-[1,2,4]triazolo[1,5-a]pyrimidin-2-yl]amino]-2-(3-methyl-1,2,4-triazol-1-yl)benzonitrile]
30 | COc1cc(Nc2nc3n(n2)CCN3c2ccc(F)c(F)c2F)ccc1-n1cnc(Cl)c1 [Example 45, N-[4-(4-chloroimidazol-1-yl)-3-methoxy-phenyl]-4-(2,3,4-trifluorophenyl)-5,6-dihydroimidazo[1,2-b][1,2,4]triazol-2-amine]
58.5 | COc1cc(Nc2nc3n(n2)CCCN3c2ccc(F)c(F)c2)ccc1-c1cc(C)n[nH]1 [Example 25, 4-(3,4-difluorophenyl)-N-[3-methoxy-4-(3-methyl-1H-pyrazol-5-yl)phenyl]-6,7-dihydro-5H-[1,2,4]triazolo[1,5-a]pyrimidin-2-amine]
13 | COc1cc(Nc2nc3n(n2)CCCN3c2ccc(F)c(F)c2F)ccc1-n1cnc(Cl)c1 [Example 17, N-[4-(4-chloroimidazol-1-yl)-3-methoxy-phenyl]-4-(2,3,4-trifluorophenyl)-6,7-dihydro-5H-[1,2,4]triazolo[1,5-a]pyrimidin-2-amine]
23.8 | N#Cc1cc(Nc2nc3n(n2)CCCN3c2ccc(F)c(F)c2)ccc1-n1cnc(C(F)F)c1 [Example 26, 2[4-(difluoromethyl)imidazol-1-yl]-5-[[4-(3,4-difluorophenyl)-6,7-dihydro-5H-[1,2,4]triazolo[1,5-a]pyrimidin-2-yl]amino]benzonitrile]
8.3 | COc1cc(Nc2nc3n(n2)CCCN3c2ccc(F)c(F)c2)ccc1-n1cnc(Cl)c1 [Example 6, N-[4-(4-chloroimidazol-1-yl)-3-methoxy-phenyl]-4-(3,4-difluorophenyl)-6,7-dihydro-5H-[1,2,4]triazolo[1,5-a]pyrimidin-2-amine]
22.4 | COc1cc(Nc2nc3n(n2)CCCCN3c2ccc(F)c(F)c2)ccc1-n1cnc(Cl)c1 [Example 9, N-[4-(4-chloroimidazol-1-yl)-3-methoxy-phenyl]-4-(3,4-difluorophenyl)-5,6,7,8-tetrahydro-[1,2,4]triazolo[1,5-a][1,3]diazepin-2-amine]
19.8 | Cc1ncc(-c2ccc(Nc3nc4n(n3)CCCN4c3ccc(F)c(F)c3)cc2)o1 [Example 22, 4-(3,4-difluorophenyl)-N-[4-(2-methyloxazol-5-yl)phenyl]-6,7-dihydro-5H-[1,2,4]triazolo[1,5-a]pyrimidin-2-amine]
13.8 | COc1cc(Nc2nc3n(n2)CCCN3c2ccc(F)cc2)cnc1-n1cnc(Cl)c1 [Example 38, N-[6-(4-chloroimidazol-1-yl)-5-methoxy-3-pyridyl]-4-(4-fluorophenyl)-6,7-dihydro-5H-[1,2,4]triazolo[1,5-a]pyrimidin-2-amine]
29.8 | COc1cc(Nc2nc3n(n2)CCCN3c2ccc(F)c(F)c2)ccc1-n1cnc(Cl)n1 [Example 12, N-[4-(3-chloro-1,2,4-triazol-1-yl)-3-methoxy-phenyl]-4-(3,4-difluorophenyl)-6,7-dihydro-5H-[1,2,4]triazolo[1,5-a]pyrimidin-2-amine]
14.2 | COc1cc(Nc2nc3n(n2)CCCN3c2cc(F)cc(F)c2)ccc1-n1cnc(C)n1 [Example 41, 4-(3,5-difluorophenyl)-N-[3-methoxy-4-(3-methyl-1,2,4-triazol-1-yl)phenyl]-6,7-dihydro-5H-[1,2,4]triazolo[1,5-a]pyrimidin-2-amine]
20.2 | Cc1ncc(-c2ccc(Nc3nc4n(n3)CCCN4c3ccc(F)c(F)c3)cc2C#N)o1 [Example 27, 5-[[4-(3,4-difluorophenyl)-6,7-dihydro-5H-[1,2,4]triazolo[1,5-a]pyrimidin-2-yl]amino]-2-(2-methyloxazol-5-yl)benzonitrile]
12.6 | COc1cc(Nc2nc3n(n2)CCCN3c2ccc(F)cc2)ccc1-c1cnc(C)o1 [Example 43, 4-(4-fluorophenyl)-N-[3-methoxy-4-(2-methyloxazol-5-yl)phenyl]-6,7-dihydro-5H-[1,2,4]triazolo[1,5-a]pyrimidin-2-amine]
